Reference: patent publication US20090281093A1, “ANTI-INFLAMMATORY COMPOUNDS” (C.T.G. PHARMA S.R.L., priority 2005, published 2009)

Experiment: Activity and safety: five-day once daily gavage treatment of rats, deaths and autopsy of the gastrointestinal tract
Format: in vivo
Conditions: male rats, once daily by gavage for five days, diclofenac 20 mg/kg, compound of example 1 36 mg/kg; for % deaths: 10 animals/group; for % gastrointestinal ulcer: autopsy at fifth day 6 hr after treatment
Protocol: Thirty male rats (150-200 g) were divided into three groups of 10 animals/group and treated with vehicle, diclofenac (20 mg/kg) and the compound of example 1 (36 mg/kg) for five days once daily by gavage. The vehicle consisted in 1 mL of acidified aqueous solution. At the fifth day, survival animals were sacrificed 6 hr after the treatment, by an overdose of ether, and autopsied to detect any pathological changes, particularly in the gastrointestinal tract. Prostaglandin E2 was evaluated in the liver homogenate by standard enzyme immunoassay procedure as described by Warner T D et al. (J.P.E.T. 2004, 310, 642-7).

Structure (SMILES)	% deaths [%]	% gastrointestinal ulcer [%]
O=C(Cc1ccccc1Nc1c(Cl)cccc1Cl)Oc1ccc(-c2cc(=S)ss2)cc1 [Compound example 1, 2-[(2,6-dichlorophenyl)amino]benzeneacetic acid 4-(3H-1,2,dithiole-3-thione-5-yl)-phenyl ester]	0	0
O=C(O)Cc1ccccc1Nc1c(Cl)cccc1Cl [Diclofenac]	70	100
